Test results taken from patent publication US20140323504A1, “Pyrazolo[4,3-c]Pyridine Derivatives As Kinase Inhibitors” (Cellzome Limited, priority 2011, published 2014).

How the values were obtained:
Tyk2 = target: T1, Tyk2 (Homo sapiens, UniProt P29597); experiment: Kinobeads assay with antibody detection, TYK2; type: binding; details: mixed Molt4/Ramos lysate, read-out: Tyk2 inhibition value (IC50)
T1 construct: endogenous in cells; host or cells: mixed Molt4/Ramos cell lysate (1:2)
Method: The compounds of the present invention as described in the previous examples were tested in a Kinobeads™ assay as described for ZAP-70 (WO-A 2007/137867). Briefly, test compounds (at various concentrations) and the affinity matrix with the immobilized aminopyrido-pyrimidine ligand 24 were added to cell lysate aliquots and allowed to bind to the proteins in the lysate sample. After the incubation time the beads with captured proteins were separated from the lysate. Bound proteins were then eluted and the presence of JAK1; JAK2, JAK3 and TYK2 was detected and quantified using specific antibodies in a dot blot procedure and the Odyssey infrared detection system. Dose response curves for individual kinases were generated and IC50 values calculated. Kinobeads™ assays for ZAP-70 (WO-A 2007/137867) and for kinase selectivity profiling (WO-A 2006/134056) have been previously described.
5×DP buffer: 250 mM Tris-HCl pH 7.4, 25% Glycerol, 7.5 mM MgCl2, 750 mM NaCl, 5 mM Na3VO4; filter the 5×DP buffer through a 0.22 μm filter and store in aliquot at −80° C. The 5×DP buffer is diluted with H2O to 1×DP buffer containing 1 mM DTT and 25 mM NaF.
Stock solutions of test compounds were prepared in DMSO. In a 96 well plate 30 μL solution of diluted test compounds at 5 mM in DMSO were prepared. Starting with this solution a 1:3 dilution series (9 steps) was prepared. For control experiments (no test compound) a buffer containing 2% DMSO was used.
Molt4 cells (ATCC catalogue number CRL-1582) and Ramos cells (ATCC catalogue number CRL-1596) were grown in 1 L Spinner flasks (Integra Biosciences, #182101) in suspension in RPMI 1640 medium (Invitrogen, #21875-034) supplemented with 10% Fetal Bovine Serum (Invitrogen) at a density between 0.15×10^6 and 1.2×10^6 cells/mL. Cells were harvested by centrifugation, washed once with 1×PBS buffer (Invitrogen, #14190-094) and cell pellets were frozen in liquid nitrogen and subsequently stored at −80° C. Cells were homogenized in a Potter S homogenizer in lysis buffer: 50 mM Tris-HCl, 0.8% NP40, 5% glycerol, 150 mM NaCl, 1.5 mM MgCl2, 25 mM NaF, 1 mM sodium vanadate, 1 mM DTT, pH 7.5. One complete EDTA-free tablet (protease inhibitor cocktail, Roche Diagnostics, 1873580) per 25 mL buffer was added. The material was dounced 10 times using a mechanized POTTER S, transferred to 50 mL falcon tubes, incubated for 30 minutes on ice and spun down for 10 minutes at 20,000 g at 4° C. (10,000 rpm in Sorvall SLA600, precooled). The supernatant was transferred to an ultracentrifuge (UZ)-polycarbonate tube (Beckmann, 355654) and spun for 1 hour at 100.000 g at 4° C. (33.500 rpm in Ti50.2, precooled). The supernatant was transferred again to a fresh 50 mL falcon tube, the protein concentration was determined by a Bradford assay (BioRad) and samples containing 50 mg of protein per aliquot were prepared. The samples were immediately used for experiments or frozen in liquid nitrogen and stored frozen at −80° C.
Cell lysate (approximately 50 mg protein per plate) was thawed in a water bath at room temperature and then stored on ice. To the thawed cell lysate 1×DP 0.8% NP40 buffer containing protease inhibitors (1 tablet for 25 mL buffer; EDTA-free protease inhibitor cocktail; Roche. Diagnostics 1873580) was added in order to reach a final protein concentration of 10 mg/mL total protein. The diluted cell lysate was stored on ice. Mixed Molt4Ramos lysate was prepared by combining one volume of Molt4 lysate and two volumes of Ramos lysate (ratio 1:2).
Plates were sealed and incubated for 3 hours in a cold room on a plate shaker (Heidolph tiramax 1000) at 750 rpm. Afterwards the plate was washed 3 times with 230 μL washing buffer (1×DP 0.4% NP40). The filter plate was placed on top of a collection plate (Greiner bio-one, PP-microplate 96 well V-shape, 65120) and the beads were then eluted with 20 μL of sample buffer (100 mM Tris, pH 7.4, 4% SDS, 0.00025% bromophenol blue, 20% glycerol, 50 mM DTT). […]

[1] = tested on: STAT5 phosphorylation in IL-2 stimulated YT cells; experiment: pSTAT5 cell assay (IL-2 stimulated YT cells, AlphaScreen); type: cell-based; details: IL-2 stimulated human YT cells, 1 h compound incubation
Description: STAT5 phosphorylation represents one of the proximal events in the signalling cascade downstream of JAK3 activation. Therefore STAT5 phosphorylation is an appropriate readout to assess the mechanistic effect of JAK3 inhibition. Stimulation of human YT cells, an NK-like cell line, with interleukin-2 (IL-2) results in phosphorylation of STATS at tyrosine residue 694 (Tyr694) that can be quantitatively measured by immunodetection with specific antibodies and an appropriate detection method, in this case AlphaScreen assay technology.
Human YT cells were grown in RPMI medium (Lonza, BE12-167) with 2 mM L-Glutamine (Invitrogen, 25030-024) and 10% heat-inactivated FBS (Invitrogen, 10106-169) and kept in a humidified incubator (37° C., 5% CO2). Cells were harvested by centrifugation, washed once with HBSS (Invitrogen, 14180-046), resuspended in HESS at 1.5×10^6 cells/ml and 0.9×10^4 cells were seeded in 6 μl per well in a 96 well White plate (PerkinElmer, 6005569).
Test compounds were dissolved in DMSO and a 1:3 dilution series (9 steps) was prepared. To generate a dose response curve, […] of fourfold concentrated compound in 4% DMSO/HBSS were added to each cell sample in the 96 well plate resulting in a final DMSO concentration of 1% DMSO. Cells were incubated for one hour in a humidified incubator (37° C., 5% CO2). To each well 3 μl of a fourfold concentrated IL-2 solution (Recombinant human IL-2, Peprotech 200-02; 120 nM solution in HBSS) was added and incubated for 30 minutes at room temperature. Cells were lysed by adding 3 μl of 5× lysis buffer (SureFire lysis buffer; Perkin Elmer, TGRS5S10K) and incubated for 10 minutes at room temperature with gentle shaking.
For signal detection by AlphaScreen® technology the SureFire phospho-STAT5 (Tyr694Tyr699) kit was used according to instructions provided by the manufacturer (Perkin Elmer, TGRS5S10K). Acceptor beads were added as recommended by the manufacturer (Reactivation buffer/Activation buffer/Acceptor beads at a ratio of 40:10:1) and incubated at room temperature for 1.5 hours with gentle shaking. Then donor beads were added as recommended (Dilution buffer/Donor beads at a ratio of 20:1) and incubated at room temperature for 1.5 hours with gentle shaking. Plates were read on an Envision instrument (Perkin Elmer) with the AlphaScreen protocol. Data were analysed in BioAssay using the nonlinear regression for a sigmoidal dose-response with a variable slope.

T1 sequence (P29597 whole entry): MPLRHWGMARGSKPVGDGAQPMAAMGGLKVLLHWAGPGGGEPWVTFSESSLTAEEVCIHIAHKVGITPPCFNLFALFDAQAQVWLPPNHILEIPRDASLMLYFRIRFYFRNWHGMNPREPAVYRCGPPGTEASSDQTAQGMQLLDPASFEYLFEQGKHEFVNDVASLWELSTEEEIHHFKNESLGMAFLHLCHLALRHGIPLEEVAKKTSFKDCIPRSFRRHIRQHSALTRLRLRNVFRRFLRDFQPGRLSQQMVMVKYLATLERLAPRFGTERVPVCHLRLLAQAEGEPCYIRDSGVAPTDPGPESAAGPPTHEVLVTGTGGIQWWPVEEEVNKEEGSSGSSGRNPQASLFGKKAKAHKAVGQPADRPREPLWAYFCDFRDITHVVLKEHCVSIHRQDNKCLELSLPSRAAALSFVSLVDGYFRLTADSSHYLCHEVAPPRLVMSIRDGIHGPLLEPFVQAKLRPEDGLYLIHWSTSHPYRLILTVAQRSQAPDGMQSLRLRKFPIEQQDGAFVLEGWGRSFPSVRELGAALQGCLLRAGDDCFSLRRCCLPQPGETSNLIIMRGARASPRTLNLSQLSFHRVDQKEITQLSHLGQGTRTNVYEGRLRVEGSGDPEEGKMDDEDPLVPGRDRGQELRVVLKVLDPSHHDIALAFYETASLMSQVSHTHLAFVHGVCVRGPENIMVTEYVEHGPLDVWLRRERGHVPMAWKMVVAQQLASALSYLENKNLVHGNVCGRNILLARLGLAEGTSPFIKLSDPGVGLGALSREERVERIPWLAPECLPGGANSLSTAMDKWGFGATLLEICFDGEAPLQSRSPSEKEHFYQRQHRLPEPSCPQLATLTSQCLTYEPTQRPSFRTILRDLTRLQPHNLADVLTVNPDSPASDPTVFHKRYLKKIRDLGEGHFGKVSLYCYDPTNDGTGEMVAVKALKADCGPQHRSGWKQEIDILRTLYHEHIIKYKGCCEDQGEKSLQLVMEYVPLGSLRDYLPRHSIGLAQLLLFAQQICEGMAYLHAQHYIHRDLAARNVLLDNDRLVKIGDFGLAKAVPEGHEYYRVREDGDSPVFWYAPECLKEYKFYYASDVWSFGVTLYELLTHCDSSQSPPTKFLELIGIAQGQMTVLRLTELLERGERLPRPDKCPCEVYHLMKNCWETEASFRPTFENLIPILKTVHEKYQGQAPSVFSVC

Compound | IC50 (Tyk2) [nM] | IC50 [1] [nM]
C=CC(=O)Nc1cccc(Cn2ncc3cnc(Nc4cnn(C)c4)nc32)c1 [Example 1, N-(3-((6-((1-Methyl-1H-pyrazol-4-yl)amino)-1H-pyrazolo[3,4-d]pyrimidin-1-yl)methyl)phenyl)acrylamide] | > 10000 | 31
C=CC(=O)Nc1cc(Cn2ncc3cnc(Nc4cnn(C)c4)nc32)ccc1F [Example 2, […]] | > 10000 | 378
C#CC(=O)Nc1cccc(Cn2ncc3cnc(Nc4cnn(C)c4)nc32)c1 [Example 3, N-(3-((6-((1-Methyl-1H-pyrazol-4-yl)amino)-1H-pyrazolo[3,4-d]pyrimidin-1-yl)methyl)phenyl)propiolamide] | 6960 | 33
C=CS(=O)(=O)Nc1cccc(Cn2ncc3cnc(Nc4cnn(C)c4)nc32)c1 [Example 4, N-(3-((6-((1-Methyl-1H-pyrazol-4-yl)amino)-1H-pyrazolo[3,4-d]pyrimidin-1-yl)methyl)phenyl)ethenesulfonamide] | 6130 | 74
C=C(C)C(=O)Nc1cccc(Cn2ncc3cnc(Nc4cnn(C)c4)nc32)c1 [Example 5, N-(3-((6-((1-Methyl-1H-pyrazol-4-yl)amino)-1H-pyrazolo[3,4-d]pyrimidin-1-yl)methyl)phenyl)methacrylamide] | > 10000 | 2000
C=CS(=O)(=O)Nc1cccc(Cn2ccc3cnc(Nc4cnn(C)c4)nc32)c1 [Example 7, N-(3-((2-((1-Methyl-1H-pyrazol-4-yl)amino)-7H-pyrrolo[2,3-d]pyrimidin-7-yl)methyl)phenyl)ethenesulfonamide] | 901 | 79
CC(=O)Nc1cccc(Cn2ncc3cnc(Nc4cnn(C)c4)nc32)c1 [compound 2, N-(3-((6-((1-methyl-1H-pyrazol-4-yl)amino)-1H-pyrazolo[3,4-d]pyrimidin-1-yl)methyl)phenyl)acetamide, reference compound] | > 10000 | –
